Values quoted from earlier work, collected in patent publication US20210052545A1, “COMPOSITIONS AND METHODS OF THEIR USE” (priority 2018, published 2021).

Details: human, in vivo

## NC(=O)N1c2ccccc2C=Cc2ccccc21 [carbamezepine]
  increase in the risk of blood dyscrasias: five- to eight
  patients showing a 25% decrease in white blood cell count: 7%
